What was measured:
Assay in all cases: relative viability (nuclei count vs DMSO), 5 days (fraction); higher = more cells survive
Veliparib + Phenformin = compound: C[C@]1(c2nc3c(C(N)=O)cccc3[nH]2)CCCN1 [Veliparib] + N=C(N)NC(=N)NCCc1ccccc1 [Phenformin] (partner 250 µM)
Summary of the method: (§1)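 After 5 days of treatment, lung cancer cells in 1536-well plates were fixed and stained in a single step (final 0.05% Triton X-100, 1% formaldehyde, 1 ug/ml Hoechst) and their nuclei counted on 4× images. Treatment had been applied by pin tool the day after seeding as one drug alone or as a fixed anchor-drug dose with five library-drug doses (not always all listed) in √10 steps. Relative viability is the nuclei count of treated wells divided by that of vehicle wells, and values are medians of duplicate plates.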

Veliparib = compound: C[C@]1(c2nc3c(C(N)=O)cccc3[nH]2)CCCN1 [Veliparib]
Summary of the method: (§2)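 MetaXpress counted nuclei in 4× images of lung cancer cell lines that had been fixed, permeabilised and Hoechst-stained in one step. Before that, cells in 1536-well plates were kept overnight at 37 °C, pinned with five √10-spaced library-drug doses on vehicle-anchored plates, and cultured 5 days without medium change. Viability takes treated-well nuclei over vehicle-well nuclei and uses the median across plates. Plates were accepted only at control CV below 25% and at least one doubling.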

[1] = compound: COC1=CC=C(C=C1)CN2C=CC3=C2C=C(C=C3)C(=O)NO
Summary of the method: as §2

[2] = compound: COC1=CC=C(C=C1)CN2C=CC3=C2C=C(C=C3)C(=O)NO + CC1(C)CCC(c2ccc(Cl)cc2)=C(CN2CCN(c3ccc(C(=O)NS(=O)(=O)c4ccc(N[C@H](CCN5CCOCC5)CSc5ccccc5)c(S(=O)(=O)C(F)(F)F)c4)cc3)CC2)C1 [Navitoclax] (partner 0.5 µM)
Summary of the method: as §1

Cell Line	relative viability (Veliparib + Phenformin; first compound 0.02 µM)	relative viability (Veliparib + Phenformin; first compound 0.06325 µM)	relative viability (Veliparib + Phenformin; first compound 0.2 µM)	relative viability (Veliparib + Phenformin; first compound 0.6325 µM)	relative viability (Veliparib + Phenformin; first compound 2 µM)	relative viability (Veliparib; 0.02 µM)	relative viability (Veliparib; 0.06325 µM)	relative viability (Veliparib; 0.2 µM)	relative viability (Veliparib; 0.6325 µM)	relative viability (Veliparib; 2 µM)	relative viability ([1]; 0.08 µM)	relative viability ([1]; 0.253 µM)	relative viability ([1]; 0.8 µM)	relative viability ([1]; 2.53 µM)	relative viability ([1]; 8 µM)	relative viability ([2]; first compound 0.08 µM)	relative viability ([2]; first compound 0.253 µM)	relative viability ([2]; first compound 0.8 µM)	relative viability ([2]; first compound 2.53 µM)	relative viability ([2]; first compound 8 µM)
NCI-H2342	0.583	0.589	0.506	0.579	0.587	0.966	0.968	0.94	0.873	0.979	0.946	0.973	0.992	0.997	0.827	–	–	–	–	–
HOP-62	0.514	0.61	0.61	0.613	0.723	0.934	0.909	0.963	0.976	1.02	0.865	1.01	0.992	1.03	0.958	0.547	0.984	1.02	1.08	1.02
BEN	0.24	0.251	0.292	0.253	0.25	0.833	0.873	0.987	0.86	0.87	1.03	0.986	0.936	0.976	0.856	0.0556	0.0746	0.0683	0.156	0.0729
NCI-H647	0.438	0.405	0.563	0.505	0.597	1.02	0.945	1.03	0.813	1.03	0.754	0.909	1.02	0.989	0.869	–	1.04	1	0.959	1.21
NCI-H2085	–	0.734	0.795	0.652	0.699	0.851	0.999	0.983	0.922	1.01	1.01	0.991	1.04	0.996	0.968	0.891	1.04	1.19	1.01	1.08
NCI-H2347	0.426	0.273	0.473	0.464	0.366	1.08	0.936	0.94	0.971	0.898	0.911	1.06	1.1	1.17	0.974	0.579	0.883	0.843	0.968	0.762
NCI-H2228	0.209	0.301	0.276	0.284	0.236	0.909	1.08	1.15	0.954	0.932	1.06	1.05	0.996	1.07	0.851	0.955	1.19	1.04	1.1	0.411
NCI-H2009	0.455	0.452	0.483	0.457	0.473	0.918	0.922	0.972	0.931	1.1	0.926	0.978	1.01	0.993	0.913	1.23	1.19	1.13	1.18	1.13
IA-LM	–	–	–	–	–	0.918	0.831	0.952	0.896	0.886	0.91	0.949	1.03	1.08	0.868	0.675	0.882	1.02	0.851	0.695
NCI-H358	0.226	0.316	0.337	0.32	0.351	0.762	0.856	0.924	0.941	0.94	–	0.945	1.09	0.976	0.746	–	–	–	–	–
SK-LU-1	0.588	0.524	0.544	0.512	0.506	1.04	1.06	1.06	0.98	1.01	0.974	0.997	1.02	1.04	0.966	0.849	1	1	0.815	0.745
LCLC-97TM1	0.428	0.435	0.439	0.428	0.499	0.903	0.925	0.897	0.912	0.993	–	1.03	1.02	0.942	0.887	–	0.505	0.472	0.42	0.412
NCI-H322M	–	0.641	0.814	0.724	0.747	–	0.872	1.07	0.963	0.903	–	0.948	1.06	0.925	0.931	–	1.1	1.13	1.18	1.24
NCI-H1623	–	0.514	0.605	0.583	0.545	0.762	0.883	0.959	1.01	0.984	0.812	0.975	0.999	0.982	0.897	–	–	–	–	–
EMC-BAC-2	0.442	0.532	0.609	0.484	0.575	1.01	0.786	1.09	1.11	0.965	0.88	–	1.08	0.979	0.873	0.993	1.21	1.16	1.21	1.15
